Source: PubChem BioAssay (NCI)
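48-hour exposure; five concentrations; linearly interpolated endpoints. Abbreviation: GI50, concentration required for 50% inhibition of growth. TGI marks complete inhibition of growth.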

Key:
Assay in all cases: NCI anticancer screen, dose series, 48 h
SR leukemia = tested on: SR leukemia
UO-31 renal = tested on: UO-31 renal
SF-268 CNS = tested on: SF-268 CNS
SK-OV-3 ovarian = tested on: SK-OV-3 ovarian
OVCAR-4 ovarian = tested on: OVCAR-4 ovarian
TK-10 renal = tested on: TK-10 renal
IGROV1 ovarian = tested on: IGROV1 ovarian
UACC-257 melanoma = tested on: UACC-257 melanoma
ACHN renal = tested on: ACHN renal
NCI/ADR-RES ovarian = tested on: NCI/ADR-RES ovarian
EKVX NSCLC = tested on: EKVX NSCLC
MDA-MB-231 breast = tested on: MDA-MB-231 breast
COLO 205 colon = tested on: COLO 205 colon
BT-549 breast = tested on: BT-549 breast
SNB-19 CNS = tested on: SNB-19 CNS
HOP-62 NSCLC = tested on: HOP-62 NSCLC
KM12 colon = tested on: KM12 colon
MDA-MB-435 = tested on: MDA-MB-435
UACC-62 melanoma = tested on: UACC-62 melanoma
OVCAR-5 ovarian = tested on: OVCAR-5 ovarian
HS 578T breast = tested on: HS 578T breast
A549 NSCLC = tested on: A549 NSCLC
SK-MEL-5 melanoma = tested on: SK-MEL-5 melanoma
NCI-H23 lung = tested on: NCI-H23 lung
LOX IMVI melanoma = tested on: LOX IMVI melanoma
SF-295 CNS = tested on: SF-295 CNS
SW-620 colon = tested on: SW-620 colon
NCI-H460 lung = tested on: NCI-H460 lung
SNB-75 CNS = tested on: SNB-75 CNS
HCT-116 colon = tested on: HCT-116 colon
SK-MEL-2 melanoma = tested on: SK-MEL-2 melanoma
T-47D breast = tested on: T-47D breast
SK-MEL-28 melanoma = tested on: SK-MEL-28 melanoma
MDA-MB-468 breast = tested on: MDA-MB-468 breast
SN12C renal = tested on: SN12C renal
U251 CNS = tested on: U251 CNS
HL-60(TB) leukemia = tested on: HL-60(TB) leukemia
A498 renal = tested on: A498 renal
OVCAR-8 ovarian = tested on: OVCAR-8 ovarian
HCT-15 colon = tested on: HCT-15 colon
HCC-2998 colon = tested on: HCC-2998 colon
MOLT-4 leukemia = tested on: MOLT-4 leukemia
OVCAR-3 ovarian = tested on: OVCAR-3 ovarian
RPMI-8226 leukemia = tested on: RPMI-8226 leukemia
786-0 renal = tested on: 786-0 renal
PC-3 prostate = tested on: PC-3 prostate
M14 melanoma = tested on: M14 melanoma
SF-539 CNS = tested on: SF-539 CNS
CCRF-CEM leukemia = tested on: CCRF-CEM leukemia
HOP-92 NSCLC = tested on: HOP-92 NSCLC
K-562 leukemia = tested on: K-562 leukemia
HT29 colon = tested on: HT29 colon
DU-145 prostate = tested on: DU-145 prostate
RXF 393 renal = tested on: RXF 393 renal
CAKI-1 renal = tested on: CAKI-1 renal
MALME-3M melanoma = tested on: MALME-3M melanoma
NCI-H226 lung = tested on: NCI-H226 lung
NCI-H522 lung = tested on: NCI-H522 lung
MCF7 breast = tested on: MCF7 breast

O=C(Nc1ccc(Cl)c(C(F)(F)F)c1)N1CCN(c2cc(-c3cn(-c4ccccc4)nc3-c3cccc(O)c3)ccn2)CC1
GI50 (SR leukemia): 3.07 µM | TGI (SR leukemia): > 22 µM | GI50 (UO-31 renal): 3 µM | TGI (UO-31 renal): > 22 µM | GI50 (SF-268 CNS): 3.3 µM | TGI (SF-268 CNS): > 22 µM | GI50 (SK-OV-3 ovarian): 6.43 µM | TGI (SK-OV-3 ovarian): > 22 µM | GI50 (OVCAR-4 ovarian): 2.02 µM | TGI (OVCAR-4 ovarian): > 22 µM | GI50 (TK-10 renal): 5.92 µM | TGI (TK-10 renal): > 22 µM | GI50 (IGROV1 ovarian): 5.11 µM | TGI (IGROV1 ovarian): > 22 µM | GI50 (UACC-257 melanoma): 4.77 µM | TGI (UACC-257 melanoma): 14.3 µM | GI50 (ACHN renal): 3 µM | TGI (ACHN renal): 17 µM | GI50 (NCI/ADR-RES ovarian): 2.91 µM | TGI (NCI/ADR-RES ovarian): 11.9 µM | GI50 (EKVX NSCLC): 2.57 µM | TGI (EKVX NSCLC): 19.6 µM | GI50 (MDA-MB-231 breast): 3.07 µM | TGI (MDA-MB-231 breast): 7.57 µM | GI50 (COLO 205 colon): 3.01 µM | TGI (COLO 205 colon): 9.39 µM | GI50 (BT-549 breast): 3.33 µM | TGI (BT-549 breast): 7.99 µM | GI50 (SNB-19 CNS): 4.06 µM | TGI (SNB-19 CNS): > 22 µM | GI50 (HOP-62 NSCLC): 6.28 µM | TGI (HOP-62 NSCLC): > 22 µM | GI50 (KM12 colon): 3.34 µM | TGI (KM12 colon): 15.2 µM | GI50 (MDA-MB-435): 2.29 µM | TGI (MDA-MB-435): 6.33 µM | GI50 (UACC-62 melanoma): 2.68 µM | TGI (UACC-62 melanoma): 5.77 µM | GI50 (OVCAR-5 ovarian): 4.13 µM | TGI (OVCAR-5 ovarian): 10.5 µM | GI50 (HS 578T breast): 3.39 µM | TGI (HS 578T breast): 15.8 µM | GI50 (A549 NSCLC): 4.34 µM | TGI (A549 NSCLC): > 22 µM | GI50 (SK-MEL-5 melanoma): 2.58 µM | TGI (SK-MEL-5 melanoma): 5.45 µM | GI50 (NCI-H23 lung): 3.69 µM | TGI (NCI-H23 lung): 14.9 µM | GI50 (LOX IMVI melanoma): 2.99 µM | TGI (LOX IMVI melanoma): 6.52 µM | GI50 (SF-295 CNS): 1.5 µM | TGI (SF-295 CNS): 7.25 µM | GI50 (SW-620 colon): 4.78 µM | TGI (SW-620 colon): > 22 µM | GI50 (NCI-H460 lung): 2.47 µM | TGI (NCI-H460 lung): > 22 µM | GI50 (SNB-75 CNS): 0.634 µM | TGI (SNB-75 CNS): 11.1 µM | GI50 (HCT-116 colon): 1.86 µM | TGI (HCT-116 colon): > 22 µM | GI50 (SK-MEL-2 melanoma): 3.54 µM | TGI (SK-MEL-2 melanoma): 7.56 µM | GI50 (T-47D breast): 1.13 µM | TGI (T-47D breast): 14.8 µM | GI50 (SK-MEL-28 melanoma): 3.41 µM | TGI (SK-MEL-28 melanoma): 10.3 µM | GI50 (MDA-MB-468 breast): 1.03 µM | TGI (MDA-MB-468 breast): 7.22 µM | GI50 (SN12C renal): 3.21 µM | TGI (SN12C renal): > 22 µM | GI50 (U251 CNS): 4.23 µM | TGI (U251 CNS): > 22 µM | GI50 (HL-60(TB) leukemia): 2.34 µM | TGI (HL-60(TB) leukemia): 8.58 µM | GI50 (A498 renal): 4.72 µM | TGI (A498 renal): 21 µM | GI50 (OVCAR-8 ovarian): 4.72 µM | TGI (OVCAR-8 ovarian): > 22 µM | GI50 (HCT-15 colon): 2.84 µM | TGI (HCT-15 colon): > 22 µM | GI50 (HCC-2998 colon): 6.1 µM | TGI (HCC-2998 colon): > 22 µM | GI50 (MOLT-4 leukemia): 0.93 µM | TGI (MOLT-4 leukemia): 7.58 µM | GI50 (OVCAR-3 ovarian): 1.76 µM | TGI (OVCAR-3 ovarian): 11.5 µM | GI50 (RPMI-8226 leukemia): 1.21 µM | TGI (RPMI-8226 leukemia): 11.8 µM | GI50 (786-0 renal): 4.02 µM | TGI (786-0 renal): > 22 µM | GI50 (PC-3 prostate): 0.967 µM | TGI (PC-3 prostate): 17 µM | GI50 (M14 melanoma): 3.03 µM | TGI (M14 melanoma): 12.5 µM | GI50 (SF-539 CNS): 4.21 µM | TGI (SF-539 CNS): > 22 µM | GI50 (CCRF-CEM leukemia): 1.59 µM | TGI (CCRF-CEM leukemia): 9.71 µM | GI50 (HOP-92 NSCLC): 2.59 µM | TGI (HOP-92 NSCLC): 15.9 µM | GI50 (K-562 leukemia): 2.13 µM | TGI (K-562 leukemia): > 22 µM | GI50 (HT29 colon): 4.1 µM | TGI (HT29 colon): > 22 µM | GI50 (DU-145 prostate): 7.15 µM | TGI (DU-145 prostate): > 22 µM | GI50 (RXF 393 renal): 2.42 µM | TGI (RXF 393 renal): 9.79 µM | GI50 (CAKI-1 renal): 4.18 µM | TGI (CAKI-1 renal): 19.4 µM | GI50 (MALME-3M melanoma): 3.3 µM | TGI (MALME-3M melanoma): 8.95 µM | GI50 (NCI-H226 lung): 3.22 µM | TGI (NCI-H226 lung): 15.8 µM | GI50 (NCI-H522 lung): 2.77 µM | TGI (NCI-H522 lung): 9.26 µM | GI50 (MCF7 breast): 1.8 µM | TGI (MCF7 breast): 10.1 µM
